According to patent US6740635B2, “Antiviral linear polymers” (Biomolecular Research Institute Ltd., priority 1996, dated 2004):
In brackets after ≈: the same amount, converted by molar mass. Like-named read-outs stand apart in the source and are kept apart here.

Tests used:
[1] = test system: HIV 1 IIIB; test: microbe, parasite or virus in culture; format: cell-based, Human Immunodeficiency Virus type 1; details: Human immunodeficiency virus 1, IIIB
[2] = in vitro
[3] = test system: uninfected cells
[4] = test system: RSV; Long; test: RSV Long CPE-inhibition; format: cell-based, Respiratory Syncytial Virus
[5] = test system: RSV; A2; test: RSV A2 viral count or plaque reduction; format: cell-based; details: human respiratory syncytial virus, Table 5
[6] = test system: RSV; A2; test: RSV A2 Neutral Red cell count; format: cell-based; details: human respiratory syncytial virus, read-out: NR = Neutral Red cell count EC50
[7] = test system: Flu B; test: microbe, parasite or virus in culture; format: cell-based; details: Influenza B virus, read-out: NR = Neutral Red cell count EC50
[8] = test system: CMV; test: microbe, parasite or virus in culture; format: cell-based; details: Human betaherpesvirus 5, read-out: CPE-inhibition EC50
[9] = test system: RSV; A2; test: RSV A2 virus yield
[10] = test system: VZV; test: VZV viral count or plaque reduction; format: cell-based, Varicella Zoster Virus; details: Human alphaherpesvirus 3
[11] = test system: HSV-1; test: HSV-1 CPE Inhibition; details: Human alphaherpesvirus 1, HFF, in Homo sapiens, read-out: EC50, HSV-1 CPE Inhibition
[12] = test system: HSV-2; test: HSV-2 CPE Inhibition; details: Human alphaherpesvirus 2, HFF, in Homo sapiens, read-out: EC50, HSV-2 CPE Inhibition
[13] = test system: HSV-1; test: HSV-1 Plaque Reduction; details: Human alphaherpesvirus 1, HFF, in Homo sapiens, read-out: EC50, HSV-1 Plaque Reduction
[14] = test system: HSV-2; test: HSV-2 Plaque Reduction; details: Human alphaherpesvirus 2, HFF, in Homo sapiens, read-out: EC50, HSV-2 Plaque Reduction
[15] = in vitro; details: mouse
[16] = test system: Cytomegalovirus (Davis strain); test: HCMV CPE Inhibition; details: Human betaherpesvirus 5, HFF, in Homo sapiens, read-out: EC50, HCMV CPE Inhibition
[17] = test system: Cytomegalovirus (Davis strain); test: HCMV Plaque Reduction; details: Human betaherpesvirus 5, HFF, in Homo sapiens, read-out: EC50, HCMV Plaque Reduction
[18] = test system: MCMV; test: MCMV Plaque Reduction; details: Mus musculus, MEF, read-out: EC50, MCMV Plaque Reduction

Cc1cn([C@H]2C[C@H](N=[N+]=[N-])[C@@H](CO)O2)c(=O)[nH]c1=O [AZT, Zidovudine]
EC50 [1]: 0.0001 mg/L | EC50 ([1]; read-out: CPE-inhibition EC50): 0.00037 µM | CC50 ([2]; CC50, parallel to HIV 1 IIIB test, Table 1, standards): 1.17 mg/L | CC50 ([2]; CPE-inhibition (CC50), parallel to HIV-1 IIIB test, Table 5, Concentrations μM): 4.38 µM

poly-L-lysyl [(8-octanamido)-5-acetamido-3,5-dideoxy-2-thio-D-glycero-α-D-galacto-2-nonulopyranosidoic acid]n [BRI 6150]
Virus Yield (CC50) [3]: > 1000 mg/L

NC(=O)c1ncn([C@@H]2O[C@H](CO)[C@@H](O)[C@H]2O)n1 [Ribavirin]
CPE-inhibition EC50 [4]: 7 mg/L | EC50 ([4]; human respiratory syncytial virus): 10 mg/L (≈ 40.9 µM) | EC50 [5]: 2 mg/L (≈ 8.19 µM) | EC50 [6]: 1 mg/L (≈ 4.09 µM) | EC50 [7]: 1.8 mg/L (≈ 7.37 µM) | EC50 [8]: 25 mg/L (≈ 102 µM) | CC50 [2]: > 100 mg/L | CC50 ([2]; CPE-inhibition (CC50), parallel to CMV CPE-inhibition, Table 6): 118 mg/L | CC50 ([2]; CPE-inhibition (CC50), parallel to RSV A2 CPE-inhibition): > 1000 mg/L | CC50 ([2]; NR = Neutral Red cell count (CC50)): 40 mg/L | CC50 ([2]; Viral count or Plaque Reduction (CC50), parallel to RSV A2 viral count, Table 5): > 1000 mg/L | CC50 ([2]; Virus Yield (CC50), parallel to RSV A2 virus yield test): 71 mg/L | Virus Yield SI = CC50/EC90 ([9]; RSV, A2): 12 | EC50 ([9]; human respiratory syncytial virus, read-out: Virus Yield EC50): 6 mg/L (≈ 24.6 µM) | EC90 ([9]; human respiratory syncytial virus, read-out: Virus Yield EC90): 6 mg/L (≈ 24.6 µM)

Nc1nc2c(ncn2COCCO)c(=O)[nH]1 [Acyclovir]
EC50 [10]: 0.5 mg/L (≈ 2.22 µM) | EC50 [11]: 0.06 mg/L (≈ 0.266 µM) | EC50 [12]: 0.2 mg/L (≈ 0.888 µM) | EC50 [13]: 0.3 mg/L (≈ 1.33 µM) | EC50 [14]: 0.6 mg/L (≈ 2.66 µM)

Nc1nc(O)c2ncn(COC(CO)CO)c2n1 [Ganciclovir]
CC50 [15]: 0.5 mg/L (≈ 1.96 µM) | EC50 [16]: 0.1 mg/L (≈ 0.392 µM) | EC50 [17]: 0.2 mg/L (≈ 0.784 µM) | EC50 [18]: 0.6 mg/L (≈ 2.35 µM)
